This is an account of results in patent US20240051985A1, “METTL3 MODULATORS” (ACCENT THERAPEUTICS, INC., priority 2020, published 2024).

One test deals with METTL3/METTL14 (Homo sapiens, UniProt Q86U44). In words: METTL3-14 standard enzyme assay (3H-SAM flashplate). As to conditions: METTL3 biochemical assay. Summed up: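 Radiometric methyltransferase read-out: after quenching with excess unlabelled SAM (15 μM), biotinylated RNA was captured on streptavidin flashplates (2 h, 25° C) and counted. Reactions contained 2.5 nM enzyme (5 min preincubation), 100 nM RNA and 100 nM 3H-SAM, ran 30 min in HEPES pH 7.5 buffer with KCl, MgCl2, DTT.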

The target of another test is PRMT5-MEP50 (Homo sapiens, UniProt O14744). Nature of the test: PRMT5 assay (3H-SAM flashplate). As to conditions: PRMT5 biochemical assay. Here is the method:
Assays were performed in a 25 μl-volume in 384-well V-bottom polypropylene microplates (Greiner Bio-One, cat. No. 781280) at ambient temperature. Optimized 1× assay buffer was 20 mM Tris-HCl pH 8.0, 1 mM DTT, […]. For compound screening PRMT5-MEP50 (final concentration, f.c.=2.5 nM) was added using a Multidrop Combi (ThermoFisher Scientific, Waltham, MA) and preincubated for 5 min. Reactions were started by adding 3′ biotinylated histone H4 peptide acetylated on serine 1 (Ac-[…]-Biotin) (f.c.=100 nM) and 3H-SAM (f.c.=250 nM) substrates. Reactions proceeded for 60 minutes and were quenched with excess non-radioactive SAM (f.c.=15 μM). The reactions were then transferred to streptavidin-coated flashplates and incubated for 2 hours at 25° C. Following two washing cycles with 0.1% Tween-20, the plates were sealed and read on a TopCount (PerkinElmer, Waltham, MA) plate-based scintillation counter. For determination of kinetic parameters, reaction times were optimized so that measurements were taken during the initial velocity phase of the reaction.

pIC50: −log10 of the molar value. Where only a bound is given, the exact number is not on record here.

PRMT5-MEP50, sequence (O14744 whole entry): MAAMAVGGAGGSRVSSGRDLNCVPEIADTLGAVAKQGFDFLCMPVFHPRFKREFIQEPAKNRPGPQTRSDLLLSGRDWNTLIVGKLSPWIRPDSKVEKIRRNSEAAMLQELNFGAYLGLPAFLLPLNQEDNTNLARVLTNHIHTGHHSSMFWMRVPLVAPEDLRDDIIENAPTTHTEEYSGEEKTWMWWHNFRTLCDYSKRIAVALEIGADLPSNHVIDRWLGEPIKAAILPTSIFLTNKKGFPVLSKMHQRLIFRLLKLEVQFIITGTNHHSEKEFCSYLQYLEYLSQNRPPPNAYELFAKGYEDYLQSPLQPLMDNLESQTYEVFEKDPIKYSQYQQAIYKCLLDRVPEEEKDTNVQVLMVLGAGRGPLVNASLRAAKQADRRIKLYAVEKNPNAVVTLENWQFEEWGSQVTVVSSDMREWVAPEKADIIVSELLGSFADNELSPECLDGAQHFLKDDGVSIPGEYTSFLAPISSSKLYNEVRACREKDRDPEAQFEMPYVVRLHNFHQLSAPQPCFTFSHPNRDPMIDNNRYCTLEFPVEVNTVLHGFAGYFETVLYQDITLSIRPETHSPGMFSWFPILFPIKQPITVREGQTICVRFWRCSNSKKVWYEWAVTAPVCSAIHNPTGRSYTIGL
PRMT5-MEP50, sequence (Q9BQA1 whole entry partner): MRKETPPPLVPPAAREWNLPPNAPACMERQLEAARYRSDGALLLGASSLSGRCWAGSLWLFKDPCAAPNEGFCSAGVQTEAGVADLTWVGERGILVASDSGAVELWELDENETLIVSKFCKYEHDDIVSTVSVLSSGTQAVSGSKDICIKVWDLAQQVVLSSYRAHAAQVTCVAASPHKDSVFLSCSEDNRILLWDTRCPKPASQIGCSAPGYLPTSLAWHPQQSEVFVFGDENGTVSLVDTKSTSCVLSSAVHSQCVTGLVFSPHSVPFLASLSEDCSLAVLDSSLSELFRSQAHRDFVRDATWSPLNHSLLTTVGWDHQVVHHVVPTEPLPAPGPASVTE
METTL3/METTL14, sequence (Q86U44 whole entry, species assumed): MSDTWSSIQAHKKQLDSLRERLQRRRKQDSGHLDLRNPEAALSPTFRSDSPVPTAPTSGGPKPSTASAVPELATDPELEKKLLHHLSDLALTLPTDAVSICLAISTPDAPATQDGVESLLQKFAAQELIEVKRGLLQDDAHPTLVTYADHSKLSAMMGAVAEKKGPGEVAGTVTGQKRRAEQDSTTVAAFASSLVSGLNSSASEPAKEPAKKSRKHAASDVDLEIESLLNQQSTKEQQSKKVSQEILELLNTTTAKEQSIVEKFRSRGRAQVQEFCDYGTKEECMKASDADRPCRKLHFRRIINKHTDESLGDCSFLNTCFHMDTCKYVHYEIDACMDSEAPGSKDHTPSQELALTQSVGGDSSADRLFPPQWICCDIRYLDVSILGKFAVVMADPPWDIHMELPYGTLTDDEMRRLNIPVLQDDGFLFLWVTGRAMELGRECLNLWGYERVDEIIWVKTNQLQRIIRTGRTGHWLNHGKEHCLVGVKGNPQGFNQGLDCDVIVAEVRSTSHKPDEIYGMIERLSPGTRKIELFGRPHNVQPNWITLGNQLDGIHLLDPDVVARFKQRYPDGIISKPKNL
METTL3/METTL14, sequence (Q9HCE5 whole entry partner, species assumed): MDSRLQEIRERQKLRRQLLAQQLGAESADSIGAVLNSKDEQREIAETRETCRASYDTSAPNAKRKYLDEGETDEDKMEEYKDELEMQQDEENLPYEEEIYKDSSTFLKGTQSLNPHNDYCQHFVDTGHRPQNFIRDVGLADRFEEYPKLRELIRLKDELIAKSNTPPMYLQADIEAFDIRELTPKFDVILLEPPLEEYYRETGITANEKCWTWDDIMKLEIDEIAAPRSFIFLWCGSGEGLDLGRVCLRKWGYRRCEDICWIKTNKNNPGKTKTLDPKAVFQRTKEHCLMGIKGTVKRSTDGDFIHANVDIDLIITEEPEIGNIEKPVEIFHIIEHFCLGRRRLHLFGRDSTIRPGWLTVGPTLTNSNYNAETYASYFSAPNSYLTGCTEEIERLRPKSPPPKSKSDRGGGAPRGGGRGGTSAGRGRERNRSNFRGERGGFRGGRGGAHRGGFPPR

Usually pIC50 stands for the negative decadic logarithm of the IC50, by convention in mol/L. Read a low pIC50 as a large IC50. In the case of `COCCN(C(=O)[C@H]1O[C@@H](n2ccc3c(N)ncnc32)[C@H](O)[C@@H]1O)c1ccc2ccc(N3CCC3)nc2c1` [Compound I-12], the negative-log IC50 (pIC50) at METTL3/METTL14 (Table 3) and against PRMT5-MEP50 (Table 3) was no more than 6.00 in each case.
Turning to `Cn1ccc(-c2cn([C@@H]3O[C@H](C(=O)NC4CCn5ccnc5C4)[C@@H](O)[C@H]3O)c3ncnc(N)c23)n1` (some centres unmarked) [Compound I-207], the pIC50 on METTL3/METTL14 (Table 4) and at PRMT5-MEP50 (Table 4) was 6.00 to 7.00 each time.
Regarding `CCNc1ccnc(NC(=O)[C@H]2O[C@@H](n3cc(-n4cccn4)c4c(N)ncnc43)C[C@@H]2O)c1` [Compound I-29], the pIC50 is 6.00 to 7.00 against METTL3/METTL14 (Table 3) and no more than 6.00 against PRMT5-MEP50 (Table 3).
The like results for `COCCN(C(=O)[C@H]1O[C@@H](n2cc(-c3ccn(C)n3)c3c(N)ncnc32)[C@H](O)[C@@H]1O)C1CCNCC1` [Compound I-6] were, in that order, no more than 6.00 and greater than 8.00.
Regarding `Cn1ccc(-c2cn([C@@H]3O[C@H](C(=O)NCC4CCC(F)(F)CC4)[C@@H](O)[C@H]3O)c3ncnc(N)c23)n1` [Compound I-22], the negative-log IC50 (pIC50) at METTL3/METTL14 (Table 3) and on PRMT5-MEP50 (Table 3) was 6.00 to 7.00 each time.
For the compound `Cn1ccc(-c2cn([C@@H]3O[C@H](C(=O)NCC4CCOCC4)[C@@H](O)[C@H]3O)c3ncnc(N)c23)n1` [Compound I-21], the pIC50 on METTL3/METTL14 (Table 3) is 6.00 to 7.00; at PRMT5-MEP50 (Table 3) it was no more than 6.00.
Turning to `CN1CCC(N(C[C@H]2CCNC2)C(=O)[C@H]2O[C@@H](n3cc(-c4ccn(C)n4)c4c(N)ncnc43)[C@H](O)[C@@H]2O)CC1` [Compound I-154], the negative logarithm of the IC50 (pIC50) against METTL3/METTL14 (Table 4) and against PRMT5-MEP50 (Table 4) was 6.00 to 7.00 throughout.
For the compound `COCCCN(C)C(=O)[C@H]1O[C@@H](n2cc(-c3ccn(C)n3)c3c(N)ncnc32)[C@H](O)[C@@H]1O` [Compound I-5], the pIC50 against METTL3/METTL14 (Table 3) and against PRMT5-MEP50 (Table 3) was no more than 6.00 each time.
Regarding `Nc1ccnc(NC(=O)[C@H]2O[C@@H](n3cc(-n4cccn4)c4c(N)ncnc43)C[C@@H]2O)c1` [Compound I-18], the pIC50 at METTL3/METTL14 (Table 3) was 7.00 to 8.00; against PRMT5-MEP50 (Table 3) it was no more than 6.00.
On to `CN1CCC(N(CCCc2nn[nH]n2)C(=O)[C@H]2O[C@@H](n3cc(-c4ccn(C)n4)c4c(N)ncnc43)[C@H](O)[C@@H]2O)CC1` [Compound I-48], for which the pIC50 against METTL3/METTL14 (Table 4) was no more than 6.00; on PRMT5-MEP50 (Table 4), 7.00 to 8.00.
For `CN1CCC(NC(=O)[C@H]2O[C@@H](n3cc(-c4ccn(C)n4)c4c(N)ncnc43)[C@H](O)[C@@H]2O)CC1` [Compound I-25], the pIC50 against METTL3/METTL14 (Table 3) was 6.00 to 7.00; against PRMT5-MEP50 (Table 3), 7.00 to 8.00.
The matching figures for `COCCN(C(=O)[C@H]1O[C@@H](n2cc(-c3ccn(C)n3)c3c(N)ncnc32)[C@H](O)[C@@H]1O)c1ccc2ccc(N3CCC3)nc2c1` [Compound I-11]: 6.00 to 7.00 and 6.00 to 7.00.
With `CN1CCC(N(CCCC(=O)O)C(=O)[C@H]2O[C@@H](n3cc(-c4ccn(C)n4)c4c(N)ncnc43)[C@H](O)[C@@H]2O)CC1` [Compound I-58, 4-{1-[(2S,3S,4R,5R)-5-[4-amino-5-(1-methyl-1H-pyrazol-3-yl)-7H-pyrrolo[2,3-d]pyrimidin-7-yl]-3,4-dihydroxyoxolan-2-yl]-N-(1-methylpiperidin-4-yl)formamido}butanoic acid], the values for the pIC50 on METTL3/METTL14 (Table 4) and against PRMT5-MEP50 (Table 4) were no more than 6.00 and 7.00 to 8.00, respectively.
As to `Nc1ncnc2c1c(-n1cccn1)cn2[C@H]1C[C@H](O)[C@@H](C(=O)Nc2ccc3ccc(N4CCC4)nc3c2)O1` [Compound I-13], the pIC50 is greater than 8.00 against METTL3/METTL14 (Table 3) and no more than 6.00 at PRMT5-MEP50 (Table 3).
The like results for `Cn1ccc(-c2cn([C@@H]3O[C@H](C(=O)NC4CCNCC4)[C@@H](O)[C@H]3O)c3ncnc(N)c23)n1` [Compound I-1, (2S,3S,4R,5R)-5-[4-amino-5-(1-methyl-1H-pyrazol-3-yl)-7H-pyrrolo[2,3-d]pyrimidin-7-yl]-3,4-dihydroxy-N-(piperidin-4-yl)oxolane-2-carboxamide] were, in that order, no more than 6.00 and no more than 6.00.
The matching figures for `Nc1ncnc2c1c(-n1cccn1)cn2[C@H]1C[C@H](O)[C@@H](C(=O)Nc2ccc3nc(NC4CCC4)[nH]c3c2)O1` [Compound I-30]: greater than 8.00 and 6.00 to 7.00.
As for `Cn1ccc(-c2cn([C@@H]3O[C@H](C(=O)NC4CCN(c5ccccc5)CC4)[C@@H](O)[C@H]3O)c3ncnc(N)c23)n1` [Compound I-221], the pIC50 on METTL3/METTL14 (Table 4) and against PRMT5-MEP50 (Table 4) was 6.00 to 7.00 in each case.
As to `Cn1ccc(-c2cn([C@@H]3O[C@H](C(=O)NC4CCN(C5CCC5)CC4)[C@@H](O)[C@H]3O)c3ncnc(N)c23)n1` [Compound I-224], the pIC50 against METTL3/METTL14 (Table 4) and on PRMT5-MEP50 (Table 4) was 6.00 to 7.00 throughout.
As for `CNc1ccc2ccc(N(CC[C@H](N)C(=O)O)C(=O)[C@H]3O[C@@H](n4cc(-c5ccn(C)n5)c5c(N)ncnc54)[C@H](O)[C@@H]3O)cc2n1` [Compound I-38, (2S)-2-amino-4-{1-[(2S,3S,4R,5R)-5-[4-amino-5-(1-methyl-1H-pyrazol-3-yl)-7H-pyrrolo[2,3-d]pyrimidin-7-yl]-3,4-dihydroxyoxolan-2-yl]-N-[2-(methylamino)quinolin-7-yl]formamido}butanoic acid], the pIC50 was greater than 8.00 on METTL3/METTL14 (Table 4) and 6.00 to 7.00 against PRMT5-MEP50 (Table 4).
The like results for `Cn1ccc(-c2cn([C@@H]3O[C@H](C(=O)N4CCc5[nH]cnc5C4)[C@@H](O)[C@H]3O)c3ncnc(N)c23)n1` [Compound I-217] were, in that order, 6.00 to 7.00 and 7.00 to 8.00.
The like results for `C#CCCCN(C(=O)[C@H]1O[C@@H](n2cc(-c3ccn(C)n3)c3c(N)ncnc32)[C@H](O)[C@@H]1O)C1CCN(C)CC1` [Compound I-59, (2S,3S,4R,5R)-5-(4-amino-5-(1-methyl-1H-pyrazol-3-yl)-7H-pyrrolo[2,3-d]pyrimidin-7-yl)-3,4-dihydroxy-N-(1-methylpiperidin-4-yl)-N-(pent-4-yn-1-yl)tetrahydrofuran-2-carboxamide] were, in that order, 6.00 to 7.00 and greater than 8.00.
The like results for `CN1CCC(N(CCCC#N)C(=O)[C@H]2O[C@@H](n3cc(-c4ccn(C)n4)c4c(N)ncnc43)[C@H](O)[C@@H]2O)CC1` [Compound I-155] were, in that order, 6.00 to 7.00 and 7.00 to 8.00.
`CN(C)CCNC(=O)[C@H]1O[C@@H](n2cc(-c3ccn(C)n3)c3c(N)ncnc32)[C@H](O)[C@@H]1O` [Compound I-4]: the pIC50 was no more than 6.00 against METTL3/METTL14 (Table 3) and 7.00 to 8.00 against PRMT5-MEP50 (Table 3).
As for `Cn1ccc(-c2cn([C@@H]3O[C@H](C(=O)NC4CCN(c5ccccn5)CC4)[C@@H](O)[C@H]3O)c3ncnc(N)c23)n1` [Compound I-222], the negative logarithm of the IC50 (pIC50) against METTL3/METTL14 (Table 4) is 6.00 to 7.00; against PRMT5-MEP50 (Table 4), no more than 6.00.
The like results for `Cn1ccc(-c2cn([C@@H]3O[C@H](C(=O)NC4CCN(Cc5ccccc5)CC4)[C@@H](O)[C@H]3O)c3ncnc(N)c23)n1` [Compound I-201] were, in that order, 7.00 to 8.00 and 7.00 to 8.00.
